The test has as its target T1, glucocorticoid receptor (Homo sapiens, UniProt P04150).
T1 sequence (P04150 1-777): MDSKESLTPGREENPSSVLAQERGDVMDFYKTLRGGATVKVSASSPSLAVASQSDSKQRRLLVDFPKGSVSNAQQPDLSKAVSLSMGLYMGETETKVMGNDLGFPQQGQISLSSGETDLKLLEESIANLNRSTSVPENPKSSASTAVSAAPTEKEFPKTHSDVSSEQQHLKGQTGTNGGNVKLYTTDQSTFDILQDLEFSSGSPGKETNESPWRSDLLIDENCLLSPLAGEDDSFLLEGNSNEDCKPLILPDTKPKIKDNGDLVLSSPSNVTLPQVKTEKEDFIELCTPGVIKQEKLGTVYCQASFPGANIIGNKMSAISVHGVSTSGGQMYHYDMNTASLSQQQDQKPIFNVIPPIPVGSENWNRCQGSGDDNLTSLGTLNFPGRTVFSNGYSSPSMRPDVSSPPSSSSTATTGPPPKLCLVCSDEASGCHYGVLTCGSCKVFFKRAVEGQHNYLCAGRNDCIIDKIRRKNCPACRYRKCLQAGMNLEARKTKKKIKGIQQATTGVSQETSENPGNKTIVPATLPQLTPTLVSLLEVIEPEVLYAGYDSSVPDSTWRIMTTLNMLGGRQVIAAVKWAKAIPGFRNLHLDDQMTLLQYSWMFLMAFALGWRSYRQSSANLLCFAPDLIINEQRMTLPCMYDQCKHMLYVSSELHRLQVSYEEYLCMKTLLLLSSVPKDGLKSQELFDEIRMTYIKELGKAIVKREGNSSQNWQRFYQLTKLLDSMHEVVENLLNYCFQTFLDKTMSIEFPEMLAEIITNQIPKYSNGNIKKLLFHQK
Put plainly: Western Blot analysis of glucocorticoid receptor translocation into the nucleus in U937 cells. As to conditions: nuclear extract, GR band at approximately 94 kDa by densitometry, control = 100, proportional to increase in GR translocation into the nucleus.

Take `OCc1cc(C(O)CNCCCCCCOCCCCc2ccccc2)ccc1O` (stereo not shown) [Salmeterol]: the “% Change in Band Density” value turned out to be 183 ± 12%.

The values are drawn from patent US20030026766A1 (priority 2000, published 2003).
